Read-outs that look alike come from different tables or passages of the source.
Test system: co-cultured μBBB models (bEnd.3 endothelial cells and C8-D1A astrocytes)
Settings: for period of transient TEER drop: co-cultured μBBB on day 4
Description: To evaluate the fabricated μBBB system, three methods were employed: (1) Cell imaging to observe structure and morphology, (2) TEER levels to evaluate cell confluence and tight junction integrity, and (3) permeability assays to evaluate barrier selectivity. Cells were imaged with a Live/Dead assay to verify cell viability, and immunostained to look at expression of astrocyte marker GFAP and tight junction component […] (ZO-1). TEER was measured as an indicator of cell confluence and tight junction integrity, with time to maximum TEER being indicative of BBB development time. Fluxes of fluorescent-labeled tracer molecules were measured to assess permeability to larger solutes. […] Permeability was measured in μBBB models exposed to DMEM:F12 media with elevated pH (>10) for 4 h.
Over the course of the μBBB model evaluation experiments, TEER was measured twice a day to monitor cell confluence and development of tight junctions. For measurement of TEER, voltage and current electrode wires were connected via an electrode adaptor (WPI) to an EVOM2 epithelial voltohmmeter (WPI). The EVOM2 passes a constant 10 μA AC current at 12.5 Hz while measuring resistance. To calculate TEER, initial D0 Background resistances Rb were subtracted from total resistance RC at each time point and normalized for area, giving TEER values in Ωcm^2 as in the following equation: TEER=(RC−Rb)A
TEER of transwell cultures were measured daily by placing them in an Endohm chamber (WPI) and connecting it to the EVOM2.

For `NCCc1c[nH]cn1` [histamine], the “time for TEER to return to initial levels” value (100 μM histamine) was “within six minutes”, the “period of transient TEER drop” value (100 μM histamine) was 5 to 7 min and the “time for TEER to return to initial levels” value (150 μM histamine) was no more than 15 min. The “period of transient TEER drop” value (150 μM histamine) was 8 to 15 min.

— patent US9513280B2, “Microfluidic biological barrier model and associated method” (The University of Utah Research Foundation, priority 2012, dated 2016)
